Target: T1, human ΔF508-CFTR (Homo sapiens, UniProt P13569, DEL508-508)
T1 construct: expressed in transfected cells
Assay: CFTR-YFP High Throughput Assay (HTS YFP flux assay, corrector / potentiator protocols)
Format: cell-based
Conditions: FRT cells stably expressing human ΔF508-CFTR and YFP-H148Q/I152L; for Emax: normalized to positive control, read-out: Emax (% Efficacy, EMax normalized to the positive control)
Method: Assays for Detecting and Measuring the Effect of Compounds on dF508-CFTR Channels CFRT-YFP High Throughput Assay: Corrector Assay:
The following protocol is designed to selectively screen small molecule compounds for F508del CFTR corrector activities in the HTS YFP flux assay. In this protocol, the cells are incubated with testing compounds for 24 hours, washed with PBS, stimulated with forskolin and a standard potentiator, and read on a 384-well HTS plate reader, such as the Hamamatsu FDDD-6000.
(§1) YFP fluorescence intensity is acquired at high speed before and after iodide buffer is injected to the assay cells. Iodide enters the cells via active CFTR channels in the plasma membrane, and quenches the YFP fluorescence. The rate of fluorescence quenching is proportionally related to the total CFTR activities in the cell membrane. dF508-CFTR corrector accelerates YFP quenching by increasing the number of CFTR molecules in the testing cell plasma membrane.
This method was initially developed for bench top plate readers (Galietta, 2001), and was adapted to the HTS format (Sui, 2010).
Fisher Rat Thyroid (FRT) cells stably expressing both human ΔF508-CFTR and a halide-sensitive yellow fluorescent protein (YFP-H148Q/I152L 25, 22) (Galietta, 2001) were cultured on plastic surface in Coon's modified Ham's F12 medium supplemented with FBS 10%, L-glutamine 2 mM, penicillin 100 U/mL, and streptomycin 100 μg/mL. G418 (0.75-1.0 mg/mL) and zeocin (3.2 μg/mL) were used for selection of FRT cells expressing ΔF508-CFTR and YFP. For primary screening, FRT cells were plated into 384-well black wall, transparent bottom microtiter plates (Costar; Corning Inc.) at a cell density of 20, 000-40, 000 per well. Test compound was applied to the cells at varying concentrations ranging from 2 nM-[…] in either a 2-fold or 3-fold dilution series. Cells were incubated in a cell culture incubator at 37° C. with 5% CO2 for 24-26 h. Assay plates were washed with DPBS media (Thermo, cat#SH30028.02) to remove unbound cells and compound. Stimulation media (25 μL) containing 20 μM Forskolin & 30 μM P3 [6-(Ethyl-phenyl-sulfonyl)-4-oxo-1, 4-dihydro-quinoline-3-carboxylic acid 2-methoxy-benzylamide] in Hams F-12 coon's modified media was added to the plate wells and incubated at room temperature for 60-120 min. 25 μL of HEPES-PBS-I buffer (10 mM HEPES, 1 mM MgCl2, 3 mM KCl, 1 mM CaCl2, 150 mM NaI) was then added and fluorescence quench curves (Excitation 500 nm/Emission 540 nm; exposure 136 ms) were immediately recorded on an FDSS-6000 plate reader (Hamamatsu). Quench rates were derived from least squares fitting of the data (Sui, 2010).
The following protocol is designed to selectively screen small molecule compounds for F508del CFTR potentiator activities in the HTS YFP flux assay. In this protocol, the cells are incubated at 27° C. for 24 hours with homogeneously boosted dF508-CFTR expression in the cell membrane by the low temperature, washed with PBS, stimulated with forskolin, and read on a 384-well HTS plate reader, such as the Hamamatsu […].
as §1, with “dF508del-CFTR potentiators accelerate” for “dF508-CFTR corrector accelerates”, “increasing” for “increasing the number of”, “activities” for “molecules”
Fisher Rat Thyroid (FRT) cells stably expressing both human ΔF508-CFTR and a halide-sensitive yellow fluorescent protein (YFP-H148Q/I152L 25, 22) (Galietta, 2001) were cultured on plastic surface in Coon's modified Ham's F12 medium supplemented with FBS 10%, L-glutamine 2 mM, penicillin 100 U/mL, and streptomycin 100 μg/mL. G418 (0.75-1.0 mg/mL) and zeocin (3.2 μg/mL) were used for selection of FRT cells expressing ΔF508-CFTR and YFP. […]

T1 sequence (P13569 with tags, fused parts or gaps DEL508-508): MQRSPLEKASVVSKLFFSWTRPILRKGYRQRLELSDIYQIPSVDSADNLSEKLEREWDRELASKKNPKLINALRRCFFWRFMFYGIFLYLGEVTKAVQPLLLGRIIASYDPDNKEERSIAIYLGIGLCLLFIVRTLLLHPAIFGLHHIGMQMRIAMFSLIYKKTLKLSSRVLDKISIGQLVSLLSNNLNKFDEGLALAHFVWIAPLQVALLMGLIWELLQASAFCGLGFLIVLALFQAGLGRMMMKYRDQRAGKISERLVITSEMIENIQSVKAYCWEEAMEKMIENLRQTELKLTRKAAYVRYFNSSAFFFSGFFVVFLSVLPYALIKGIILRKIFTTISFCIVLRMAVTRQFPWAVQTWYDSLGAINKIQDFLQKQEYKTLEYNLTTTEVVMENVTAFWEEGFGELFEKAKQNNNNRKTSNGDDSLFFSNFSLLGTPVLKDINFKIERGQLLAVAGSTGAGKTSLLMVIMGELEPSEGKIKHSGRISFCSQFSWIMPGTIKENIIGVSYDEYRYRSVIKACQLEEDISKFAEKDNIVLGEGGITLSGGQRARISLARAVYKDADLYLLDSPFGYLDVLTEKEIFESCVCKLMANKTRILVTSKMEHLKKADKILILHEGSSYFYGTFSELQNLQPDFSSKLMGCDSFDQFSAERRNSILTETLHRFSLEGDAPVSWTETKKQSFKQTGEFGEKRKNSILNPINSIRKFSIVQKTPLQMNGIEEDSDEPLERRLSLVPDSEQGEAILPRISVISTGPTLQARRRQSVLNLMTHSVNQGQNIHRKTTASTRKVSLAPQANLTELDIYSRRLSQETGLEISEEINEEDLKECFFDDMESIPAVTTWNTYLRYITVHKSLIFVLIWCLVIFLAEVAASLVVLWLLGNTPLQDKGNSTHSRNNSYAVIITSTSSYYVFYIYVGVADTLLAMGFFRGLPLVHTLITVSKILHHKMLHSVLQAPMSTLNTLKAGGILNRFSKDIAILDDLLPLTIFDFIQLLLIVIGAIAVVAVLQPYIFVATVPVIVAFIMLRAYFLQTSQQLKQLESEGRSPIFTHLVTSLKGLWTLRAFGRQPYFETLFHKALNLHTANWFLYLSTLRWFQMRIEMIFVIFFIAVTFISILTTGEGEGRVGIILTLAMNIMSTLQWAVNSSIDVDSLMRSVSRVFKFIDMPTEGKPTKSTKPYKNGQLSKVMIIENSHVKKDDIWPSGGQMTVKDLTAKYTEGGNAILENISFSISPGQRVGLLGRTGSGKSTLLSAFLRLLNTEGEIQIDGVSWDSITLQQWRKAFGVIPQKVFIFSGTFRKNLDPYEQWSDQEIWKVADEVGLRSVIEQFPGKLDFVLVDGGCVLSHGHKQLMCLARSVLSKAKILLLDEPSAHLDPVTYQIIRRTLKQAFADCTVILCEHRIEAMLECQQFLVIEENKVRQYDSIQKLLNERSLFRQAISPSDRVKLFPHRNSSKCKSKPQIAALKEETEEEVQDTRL

| SMILES | EC50 [nM] | Emax [%] |
| --- | --- | --- |
| CCN(CC)S(=O)(=O)c1ccc2nnc(N[C@@H](Cc3ccccc3)C(=O)N3CCCCC3)n2c1 [Example 53] | < 1000 | > 80 |
| CCN(CC)S(=O)(=O)c1ccc2nnc(NCc3ccccc3F)n2c1 [Example 54] | 1000 to 10000 | > 80 |
| CCN(CC)S(=O)(=O)c1ccc2nnc(NCc3ccc(OC(F)(F)F)cc3)n2c1 [Example 55] | < 1000 | 10 to 40 |
| CCN(CC)S(=O)(=O)c1ccc2nnc(NCc3cccc(C#N)c3)n2c1 [Example 56] | < 1000 | > 80 |
| CCN(CC)S(=O)(=O)c1ccc2nnc(N[C@@H](C)C(=O)N3CCCCC3)n2c1 [Example 57] | 1000 to 10000 | 40 to 80 |
| CCN(c1cccnc1)S(=O)(=O)c1ccc2nnc(N[C@H](C)c3ccccc3)n2c1 [Example 58, (R)—N-Ethyl-3-((1-phenylethyl)amino)-N-(pyridin-3-yl)-[1,2,4]triazolo[4,3-a]pyridine-6-sulfonamide] | < 1000 | 40 to 80 |
| COc1ccc(S(=O)(=O)Nc2ccc3nnc(NCc4ccccc4)n3c2)cc1 [Example 59, N-(3-(Benzylamino)-[1,2,4]triazolo[4,3-a]pyridine-6-yl)-4-methoxybenzenesulfonamide] | < 1000 | 40 to 80 |
| CCN(CC)S(=O)(=O)c1ccn2c(NCC(C)(C)C)nnc2c1 [Example 60, N,N-Diethyl-3-(neopentylamino)-[1,2,4]triazolo[4,3-a]pyridine-7-sulfonamide] | < 1000 | > 80 |
| CCN(CC)S(=O)(=O)c1ccc2nnc(NCc3ccccc3)n2c1C [Example 61, 3-(Benzylamino)-N,N-diethyl-5-methyl-[1,2,4]triazolo[4,3-a]pyridine-6-sulfonamide] | 1000 to 10000 | 10 to 40 |
| C[C@@H](Nc1nnc2ccc(S(=O)(=O)c3ccccc3)cn12)c1ccccc1 [Example 62, (R)—N-(1-Phenylethyl)-6-(phenylsulfonyl)-[1,2,4]triazolo[4,3-a]pyridin-3-amine] | < 1000 | > 80 |
| O=S(=O)(c1ccccc1)c1ccc2nnc(NCc3ccc(C(F)(F)F)cc3)n2c1 [Example 63] | < 1000 | 40 to 80 |
| O=S(=O)(c1ccccc1)c1ccc2nnc(NC3Cc4ccccc4C3)n2c1 [Example 64] | < 1000 | > 80 |
| O=S(=O)(c1ccccc1)c1ccc2nnc(NCc3ccc(-c4ccccn4)cc3)n2c1 [Example 65] | < 1000 | > 80 |
| O=S(=O)(c1ccccc1)c1ccc2nnc(NCC(O)C3CCCCC3)n2c1 (centres unmarked) [Example 66] | < 1000 | > 80 |
| O=S(=O)(c1ccccc1)c1ccc2nnc(NCC(O)COc3ccccc3)n2c1 (centres unmarked) [Example 67] | < 1000 | > 80 |
| COC[C@@H](Nc1nnc2ccc(S(=O)(=O)c3ccccc3)cn12)c1ccccc1 [Example 68] | < 1000 | > 80 |
| O=S(=O)(c1ccccc1)c1ccc2nnc(NC[C@H](O)C3CCCCC3)n2c1 [Example 69] | < 1000 | > 80 |
| O=S(=O)(c1ccccc1)c1ccc2nnc(NC[C@H](O)c3ccccc3)n2c1 [Example 70] | < 1000 | > 80 |
| COc1cccc(S(=O)(=O)c2ccc3nnc(N[C@H](C)c4ccccc4)n3c2)c1 [Example 71] | 1000 to 10000 | > 80 |
| C[C@@H](Nc1nnc2ccc(S(=O)(=O)c3ccc(Cl)cc3)cn12)c1ccccc1 [Example 72] | 1000 to 10000 | > 80 |
| O=S(=O)(c1ccccc1)c1ccc2nnc(NCC(O)C3CCCC3)n2c1 (centres unmarked) [Example 73] | < 1000 | > 80 |
| CC(C)(C)C(=O)OC(CNc1nnc2ccc(S(=O)(=O)c3ccccc3)cn12)C1CCCCC1 (centres unmarked) [Example 74] | < 1000 | > 80 |

| SMILES | EC50 [nM] | Emax [%] |
| --- | --- | --- |
| O=S(=O)(c1ccccc1)c1ccc2nnc(NCC(O)c3ccc(F)cc3)n2c1 (centres unmarked) [Example 75] | < 1000 | > 80 |
| O=S(=O)(c1ccccc1)c1ccc2nnc(NCCC3CCCCC3)n2c1 [Example 76] | 1000 to 10000 | > 80 |
| CCOC(=O)OC(CNc1nnc2ccc(S(=O)(=O)c3ccccc3)cn12)C1CCCCC1 (centres unmarked) [Example 77] | < 1000 | > 80 |
| O=S(=O)(c1ccccc1)c1ccc2nnc(NCC(O)C3CCCCCC3)n2c1 (centres unmarked) [Example 78] | < 1000 | > 80 |
| O=C(CNc1nnc2ccc(S(=O)(=O)c3ccccc3)cn12)C1CCCCC1 [Example 79] | 1000 to 10000 | > 80 |
| O=S(=O)(c1ccccc1)c1ccc2nc(NC3Cc4ccccc4C3)nn2c1 [Example 80, N-(2,3-dihydro-1H-inden-2-yl)-6-(phenylsulfonyl)-[1,2,4]triazolo[1,5-a]pyridin-2-amine] | < 1000 | > 80 |
| C[C@@H](Nc1nc2ccc(S(=O)(=O)c3ccccc3)cn2n1)c1ccccc1 [Example 81] | < 1000 | > 80 |
| O=S(=O)(c1ccccc1)c1ccc2nc(NCc3cccc(C(F)(F)F)c3)nn2c1 [Example 82] | < 1000 | > 80 |
| O=S(=O)(c1ccccc1)c1ccc2nc(NC[C@H](O)c3ccccc3)nn2c1 [Example 83] | < 1000 | > 80 |
| O=S(=O)(c1ccccc1)c1ccc2nc(NCC(O)C3CCCCC3)nn2c1 (centres unmarked) [Example 84] | 1000 to 10000 | > 80 |
| O=S(=O)(c1ccccc1)c1ccc2nc(NC[C@@H](O)c3ccccc3)nn2c1 [Example 85] | < 1000 | > 80 |
| O=S(=O)(c1ccccc1)c1ccc2nc(NCC3CC3)nn2c1 [Example 86] | < 1000 | > 80 |
| O=C(CNc1nc2ccc(S(=O)(=O)c3ccccc3)cn2n1)C1CCCCC1 [Example 87] | < 1000 | > 80 |
| O=S(=O)(c1ccccc1)c1ccc2nc(NCCC3CCCCC3)nn2c1 [Example 88] | < 1000 | > 80 |
| Cc1ccc([C@@H](C)Nc2nc3ccc(S(=O)(=O)c4ccccc4)cn3n2)cc1 [Example 90] | 1000 to 10000 | 40 to 80 |
| O=C(c1ccc(CNc2nc3ccc(S(=O)(=O)c4ccccc4)cn3n2)cc1)N1CCC1 [Example 91] | < 1000 | 40 to 80 |
| O=S(=O)(c1ccccc1)c1ccc2nc(NCc3ccc(C4CCOCC4)cc3)nn2c1 [Example 92] | 1000 to 10000 | 40 to 80 |
| CN1CCC(c2ccc(CNc3nc4ccc(S(=O)(=O)c5ccccc5)cn4n3)cc2)CC1 [Example 93] | < 1000 | > 80 |
| O=S(=O)(c1ccccc1)c1ccc2nc(NCc3ccc(-c4ccccn4)cc3)nn2c1 [Example 94, 6-(phenylsulfonyl)-N-(4-(pyridin-2-yl)benzyl)-[1,2,4]triazolo[1,5-a]pyridin-2-amine] | < 1000 | > 80 |
| c1ccc(-c2ccc3nc(Nc4ccc(-c5ccccn5)cc4)nn3c2)cc1 [Example 100, 6-phenyl-N-(4-(pyridin-2-yl)phenyl)-[1,2,4]triazolo[1,5-a]pyridin-2-amine] | 1000 to 10000 | 40 to 80 |
| O=S(=O)(c1ccc2nc(NCc3ccc4c(c3)OCO4)nn2c1)N1CCCCC1 [Example 101, N-(benzo[d][1,3]dioxol-5-ylmethyl)-6-(piperidin-1-ylsulfonyl)-[1,2,4]-triazolo[1,5-a]pyridin-2-amine] | 1000 to 10000 | > 80 |

— patent US9926315B2, “Triazolopyridine compounds and methods for the treatment of cystic fibrosis” (Flatley Discovery Lab, LLC, priority 2014, dated 2018)
